The subject of this assay is misfolded proteins. The assay is described as follows: Binding of misfolded proteins to biotinylated peptide on streptavidin plate (OD 492 nm) or Biacore sensor chip. The note with it: statement in words; data only in figures. As for the experimental part:
Biotinylated PRKLYDY (SEQ ID NO: 5) was coated on a preblocked streptavidin plate for 1 hour at room temperature. After a washing step different concentrations of HOCl-modified albumin, or HOCl-modified fibrinogen, or HOCl-modified antithrombin, or HOCl-modified LDL (including negative control) were added for 1 hour at room temperature. After another washing step mouse anti HSA antibody was added to HOCl-modified albumin, rabbit anti fibrinogen antibody to HOCl-modified fibrinogen, rabbit anti antithrombin antibody to HOCl-modified antithrombin and mouse anti Apo B antibody to HOCl-modified LDL for 1 hour at room temperature. After another washing step the corresponding peroxidase coupled secondary antibody was added for 1 hour at room temperature. After a final washing step it was stained with o-phenylenediamine-substrate and the reaction was stopped after 30 min with 4 N sulphuric acid. The optical density was measured at 492 nm. The result is illustrated in FIG. 1A and FIG. 1B.
Biotinylated HWRRAHLLPRLP (SEQ ID NO: 2) was coated on a preblocked streptavidin plate for 1 hour at room temperature. After a washing step different concentrations of HOCl-modified albumin, or HOCl-modified fibrinogen, or HOCl-modified antithrombin, or HOCl-modified LDL (including negative control) were added for 1 hour at room temperature. […] The optical density was measured at 492 nm (FIG. 8A and FIG. 8B). […]

As to “PRKLYDY (Plasminogen peptide) [Pro, Arg, Lys, Leu, Tyr, Asp, Tyr]”, the “affinity for misfolded proteins (general binding partner)” value is recorded as “high affinity”. For “HWRRAHLLPRLP (ADAM15 peptide aa position 286-297) [His, Trp, Arg, Arg, Ala, His, Leu, Leu, Pro, Arg, Leu, Pro]”, the “affinity for misfolded proteins (general binding partner)” value is reported as “high degree of affinity”.

For the origin of these results see patent publication US10416170B2, “Detection and removal of misfolded proteins/peptides” (OXPROTECT GMBH, priority 2011, dated 2019).
